Experimental data from patent US8691818B2, “Cyclic triazo and diazo sodium channel blockers” (University Of Greenwich, priority 2008, dated 2014).

How the values were obtained:
[1] = system: sodium channel; test: [14C]guanidine flux: veratrine-evoked uptake of [14C]guanidine into rat forebrain synaptosomes (primary sodium channel assay); type: biochemical; settings: 30° for 2½ min
Outline: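 Synaptosomal fraction from male Wistar rat forebrain (without cerebellum/medulla), 20-25 mg wet weight/ml. Veratrine-evoked [14C]guanidine uptake at 30° for 2½ min across a compound concentration range; IC50 from concentration-effect curves, mean±sem.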

[2] = molecular target: T1, DiHydroFolate Reductase (DHFR) (Rattus norvegicus, UniProt Q920D2); test: Inhibition of binding of [3H]methotrexate to rat liver homogenate supernatant; settings: 125 μM; read-out: [3H]mtx binding (% inhibition @ 125 μM)
T1 construct: from tissue; host or cells: rat liver homogenate supernatant
T1 sequence (Q920D2 1-187): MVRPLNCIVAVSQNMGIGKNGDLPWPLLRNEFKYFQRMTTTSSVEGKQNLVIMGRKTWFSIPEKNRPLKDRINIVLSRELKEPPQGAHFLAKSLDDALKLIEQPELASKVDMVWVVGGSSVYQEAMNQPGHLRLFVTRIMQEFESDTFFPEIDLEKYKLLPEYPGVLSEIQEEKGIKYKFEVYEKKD
Outline: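 Displacement of [3H]methotrexate binding to rat liver homogenate supernatant, prepared at 4 °C in pH 6.0 phosphate buffer with 15 mM dithiothreitol. Values are mean±sem over the number of experiments shown.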

IC50 [1]	inhibition at 125 µM [2]	melting point	SMILES
50.1 µM	2%	124 to 126 °C	Nc1nnc(C(c2ccccc2)(c2ccccc2)c2ccccc2)c(N)n1 [CEN-153, 3,5-Diamino-6-(triphenylmethy)-1,2,4-triazine]
162 µM	13%	157 to 159 °C	Nc1nnc(C2(c3ccc(Cl)cc3)CC2)c(N)n1 [CEN-154, 3,5-Diamino-6-[1-(4-chlorophenyl)-1-cyclopropyl]-1,2,4-triazine]
44 µM	97%	215 to 217 °C (dec.)	Nc1nnc(-c2cccc(-c3ccccc3)c2)c(N)n1 [CEN-159, 3,5-Diamino-6-(3-phenylphenyl)-1,2,4-triazine]
347 µM	95%	238 to 239 °C	Nc1nnc(-c2cc(C(F)(F)F)ccc2Cl)c(N)n1 [CEN-169, 3,5-Diamino-6-(2-chloro 5 trifluoromethylphenyl)-1,2,4-triazine]
234 µM	100%	249 to 251 °C	Nc1nnc(-c2cc(Cl)cc(C(F)(F)F)c2)c(N)n1 [CEN-172, 3,5-Diamino-6-(3-chloro-5-trifluoromethylphenyl)-1,2,4-triazine]
> 2000 µM	-1%	286 to 288 °C	CS(=O)(=O)c1ccc(-c2nnc(N)nc2N)c(Cl)c1 [CEN-179, 3,5-Diamino-6-[2-chloro-4-(methylsulphonyl)phenyl]-1,2,4-triazine]
74 µM	101%	275 to 276 °C	CC(C)(C)c1ccc(-c2nnc(N)nc2N)cc1 [CEN-181, 3,5-Diamino-6-(4-tertbutylphenyl)-1,2,4-triazine]
39 µM	106%	184 to 186 °C	CCCCc1ccc(-c2nnc(N)nc2N)cc1 [CEN-183, 3,5-Diamino-6-(4-n-butylphenyl)-1,2,4-triazine]

The next lines start with the compound.

SMILES	IC50 [1]	inhibition at 125 µM [2]	melting point
Nc1nnc(-c2ccc(Cl)s2)c(N)n1 [CEN-138, 3,5-Diamino-6-[2-(5-chlorothienyl)]-1,2,4-triazine]	> 2000 µM	67%	312 to 314 °C
COc1cc2ccccc2cc1-c1nnc(N)nc1N [CEN-139]	288 µM	46%	252 to 254 °C
CCOc1cc2ccccc2cc1-c1nnc(N)nc1N [CEN-141]	288 µM	30%	212 to 214 °C
Nc1nnc(-c2ccccc2OC(F)F)c(N)n1 [CEN-142]	> 2000 µM	12%	154 to 155 °C
COc1ccc2cc(OC)c(-c3nnc(N)nc3N)cc2c1 [CEN-143]	> 2000 µM	27%	274 to 276 °C
Nc1nnc(-c2cccc(OCc3ccc(Cl)cc3Cl)c2)c(N)n1 [CEN-144, 3,5-Diamino-6-[3-(2,4-dichlorobenzyloxyphenyl)]-1,2,4-triazine]	57.5 µM	96%	164 to 166 °C
Nc1nnc(C2(c3ccc(Cl)cc3)CCCCC2)c(N)n1 [CEN-145, 3,5-Diamino-6-[1-(4-chlorophenyl)-1-cyclohexyl]-1,2,4-triazine]	9.6 µM	39%	205 to 207 °C
CC(c1ccccc1)(c1ccccc1)c1nnc(N)nc1N [CEN-147, 3,5-Diamino-6-(1,1-diphenylethyl)-1,2,4-triazine]	60.3 µM	4%	197 to 199 °C
Nc1nnc(C2(c3ccc(Cl)cc3)CCCC2)c(N)n1 [CEN-148, 3,5-Diamino-6-[1-(4-chlorophenyl)-1-cyclopenty]-1,2,4-triazine]	20.4 µM	38%	184 to 186 °C
COc1cc(-c2nnc(N)nc2N)c(OC)c2ccccc12 [CEN-151]	67.6 µM	76%	142 to 144 °C
